Measured values from the NIST ThermoML archive (doi:10.1016/j.jct.2018.04.014).

Tests used:
[1] = xn = mol fraction of the nth substance listed; settings: 93.4 kPa, Liquid, x2 = 0.059; for viscosity: Concentric cylinders viscometry; for mass density: Vibrating tube method
[2] = Liquid; for viscosity / mass density: 93.4 kPa; for viscosity: Concentric cylinders viscometry; for mass density: Vibrating tube method; for vapor or sublimation pressure: Closed cell (Static) method

C=CCn1cc[n+](C)c1.[Cl-] [1-allyl-3-methylimidazolium chloride] + O
[1]
Settings | mass density [kg/m3] | viscosity [mPa·s]
323.15 K | 1132.7 | 212
333.15 K | 1127.1 | 115
343.15 K | 1121.5 | 68.7
353.15 K | 1116 | 44
363.15 K | 1110.5 | 30
373.15 K | 1105.2 | 21.4

C[S+](C)[O-] [dimethyl sulfoxide]
[2]
Settings | mass density [kg/m3] | vapor or sublimation pressure [kPa] | viscosity [mPa·s]
293.15 K | 1101.2 | – | 2.26
303.15 K | 1091.2 | – | 1.85
313.15 K | 1081.1 | – | 1.56
323.15 K | 1071.1 | – | 1.33
333.15 K | 1061.2 | – | 1.16
343.15 K | 1051.3 | – | 1.02
353.1 K | – | 2 | –
353.15 K | 1041.1 | – | 0.905
363.1 K | – | 3.2 | –
363.15 K | 1031.3 | – | 0.815
373.1 K | – | 5 | –
373.15 K | 1021.4 | – | 0.741
383.1 K | – | 7.6 | –
393.1 K | – | 11.2 | –
403.1 K | – | 16 | –
413.1 K | – | 22.7 | –
423.1 K | – | 31.6 | –
433.1 K | – | 43.2 | –
